Read-outs that look alike come from different tables or passages of the source.

This experiment has as its system Per2-Luc reporter U2OS cells (D15). The experiment is described as follows: Circadian phase shift cell assay in D15 cells, 384 well plate, Tecan, with or without pentostatin. In kind it is cell-based, human. The following applies: for minimal effective concentration: Homo sapiens, U2OS, read-out: Cell Assay; for With Pentostadin Cell Assay: pentostatin 5 μg/ml.
The mark [1] stands for this setting: without pentostatin, concentration that shifts the circadian phase.
Where [2] appears, read: concentration that shifts the circadian phase.

As for `Nc1ncnc2c1ncn2[C@@H]1O[C@H](CO)CC1O` (some centres unmarked), the minimal effective concentration under setting [1] turned out to be 25 µM. The “With Pentostadin Cell Assay” value under setting [2] was 0.5 µM.

Turning to `Nc1ncnc2c1ncn2[C@@H]1O[C@H](CO)C(O)C1O` (some centres unmarked), the minimal effective concentration under setting [1] came out at 12.5 µM. Under setting [2], the “With Pentostadin Cell Assay” value was found to be 0.5 µM.

On to `OC[C@H]1O[C@@H](n2cnc3c(NC4CC4)ncnc32)C(O)C1O` (some centres unmarked), for which the minimal effective concentration under setting [1] turned out to be 100 µM.

For `OC[C@H]1O[C@@H](n2cnc3c(Cl)cc(Cl)nc32)C(O)C1O` (some centres unmarked), the minimal effective concentration under setting [1] is 100 µM.

As for `Nc1ncnc2c1ccn2[C@@H]1OC[C@@H](O)[C@H](O)[C@H]1O`, the minimal effective concentration under setting [1] turned out to be 100 µM.

Regarding `Nc1ncnc2c1ncn2[C@@H]1O[C@H](CO)CC1OC(=O)CCCC[C@@H]1SC[C@@H]2NC(=O)N[C@@H]21` (some centres unmarked), the minimal effective concentration under setting [1] was more than 500 µM. Further, the “With Pentostadin Cell Assay” value under setting [2] worked out at 1.5 µM.

Take `Nc1ncnc2c1ncn2[C@@H]1O[C@H](COC(=O)CCCC[C@@H]2SC[C@@H]3NC(=O)N[C@@H]32)CC1OC(=O)CCCC[C@@H]1SC[C@@H]2NC(=O)N[C@@H]21` (some centres unmarked): under setting [1], the minimal effective concentration is more than 500 µM. The “With Pentostadin Cell Assay” value under setting [2] was 12.5 µM.

With `O=C1N[C@H]2[C@H](CS[C@H]2CCCCC(=O)OC[C@H]2O[C@@H](n3cnc4cc(Cl)c(Cl)cc43)C(O)C2O)N1` (some centres unmarked), the minimal effective concentration under setting [1] was found to be 40 µM.

Consider `Nc1ncnc2c1ncn2[C@@H]1O[C@H](COC(=O)CCCC[C@@H]2SC[C@@H]3NC(=O)N[C@@H]32)C(O)C1O` (some centres unmarked), for which, under setting [1], the minimal effective concentration was more than 500 µM. Besides, the “With Pentostadin Cell Assay” value under setting [2] was 2 µM.

Consider `Nc1ncnc2c1ncn2[C@@H]1O[C@H](CO)C(O)C1OC(=O)CCCC[C@@H]1SC[C@@H]2NC(=O)N[C@@H]21` (some centres unmarked), for which the minimal effective concentration under setting [1] is more than 500 µM. In addition, the “With Pentostadin Cell Assay” value under setting [2] turned out to be 2 µM.

Take `Nc1ncnc2c1ncn2[C@@H]1O[C@H](COC(=O)CCCC[C@@H]2SC[C@@H]3NC(=O)N[C@@H]32)C(O)C1OC(=O)CCCC[C@@H]1SC[C@@H]2NC(=O)N[C@@H]21` (some centres unmarked): the minimal effective concentration under setting [1] was more than 500 µM. For the same compound, the “With Pentostadin Cell Assay” value under setting [2] stood at 25 µM.

As to `OC[C@@H]1CC(O)[C@H](n2cnc3cc(Cl)c(Cl)cc32)O1` (some centres unmarked), under setting [1], the minimal effective concentration came to 10 µM.

Take `Nc1ncnc2c1ncn2[C@@H]1O[C@H](CO)C2OC21` (some centres unmarked): under setting [1], the minimal effective concentration is 3 µM.

With `Nc1nc2c([nH]c(=S)n2[C@@H]2O[C@H](CO)C(O)C2O)c(=O)[nH]1` (some centres unmarked), the minimal effective concentration under setting [1] was 100 µM.

On to `CNc1nc2c(=O)[nH]c(N)nc2n1[C@@H]1O[C@H](CO)C(O)C1O` (some centres unmarked), for which the minimal effective concentration under setting [1] came out at 100 µM.

With `Nc1ncnc2c1c(I)cn2[C@@H]1O[C@H](CO)C(O)C1O` (some centres unmarked), the minimal effective concentration amounted to 0.3 µM.

In the case of `OC[C@H]1O[C@@H](n2cnc3c(NCc4ccccc4)ncnc32)C(O)C1O` (some centres unmarked), the minimal effective concentration under setting [1] was found to be 10 µM. Further, the “With Pentostadin Cell Assay” value under setting [2] was determined as 10 µM.

Consider `Nc1nccc2c1ncn2[C@@H]1O[C@H](CO)C(O)C1O` (some centres unmarked), for which the minimal effective concentration under setting [1] came out at 50 µM. Moreover, under setting [2], the “With Pentostadin Cell Assay” value was 50 µM.

In the case of `O=P(O)(O)OP(=O)(O)OP(=O)(O)OC[C@H]1O[C@@H](n2cnc3c(NCc4ccccc4)ncnc32)[C@H](O)[C@@H]1O`, under setting [1], the minimal effective concentration is 10 µM.

Take `Cc1cccc(Cc2nn(C(C)(C)C)c3ncnc(N)c23)c1`: under setting [1], the minimal effective concentration was found to be 10 µM.

In the case of `OC[C@H]1O[C@@H](n2cnc3c(Nc4cccc(O)c4)ncnc32)C(O)C1O` (some centres unmarked), the minimal effective concentration under setting [1] was 200 µM.

For the compound `CNC(=O)c1cnn(-c2nc(N)c3ncn([C@@H]4O[C@H](CO)C(O)C4O)c3n2)c1` (some centres unmarked), the minimal effective concentration under setting [1] was found to be 100 µM.

As for `Nc1ncnc2c1ncn2[C@@H]1O[C@@H]2COP(=O)(O)OC2C1O` (some centres unmarked), the minimal effective concentration came to 200 µM.

Regarding `Nc1ncnc2c1ncn2[C@@H]1O[C@H](COP(=O)(O)OP(=O)(O)OP(=O)(O)O)CC1O` (some centres unmarked), the minimal effective concentration under setting [1] was 100 µM.

As to `Nc1ncnc2c1ncn2[C@H]1CC[C@@H](CO)O1`, the minimal effective concentration under setting [1] amounted to 200 µM.

Take `Nc1ncnc2c1ncn2[C@@H]1O[C@H](COP(=O)(O)O)CC1O` (some centres unmarked): the minimal effective concentration under setting [1] was found to be 100 µM.

On to `Nc1nc(NC2CC2)c2ncn([C@H]3C=C[C@@H](CO)O3)c2n1`, for which, under setting [1], the minimal effective concentration turned out to be 400 µM.

As for `[N-]=[N+]=NC[C@@H]1CC(O)[C@H](n2cnc3c(N)ncnc32)O1` (some centres unmarked), under setting [1], the minimal effective concentration was determined as 500 µM. In addition, under setting [2], the “With Pentostadin Cell Assay” value was found to be 25 µM.

As for `Nc1ncnc2c1ccn2[C@@H]1O[C@H](CO)CC1O` (some centres unmarked), the minimal effective concentration under setting [1] is 200 µM. Under setting [2], the “With Pentostadin Cell Assay” value turned out to be 25 µM.

Consider `Nc1ncnc2c1ncn2[C@@H]1O[C@H](CO)[C@H](OC(=O)CCCC[C@@H]2SC[C@@H]3NC(=O)N[C@@H]32)[C@H]1O`, for which the minimal effective concentration under setting [1] was more than 500 µM. Besides, the “With Pentostadin Cell Assay” value under setting [2] turned out to be 25 µM.

With `C=C[C@@H]1CC(O)[C@H](n2cnc3c(N)ncnc32)O1` (some centres unmarked), the minimal effective concentration under setting [1] stood at 200 µM. Also, the “With Pentostadin Cell Assay” value under setting [2] was 25 µM.

Regarding `Nc1cc(Cl)nc2c1ncn2[C@@H]1O[C@H](CO)C(O)C1O` (some centres unmarked), the minimal effective concentration under setting [1] was more than 500 µM. The “With Pentostadin Cell Assay” value under setting [2] turned out to be 100 µM.

Take `Nc1ncnc2c1ncn2[C@@H]1O[C@H](C2NN2)CC1O` (some centres unmarked): the minimal effective concentration is more than 500 µM. In addition, under setting [2], the “With Pentostadin Cell Assay” value turned out to be 100 µM.

Take `COc1nc(N)c2ncn([C@@H]3O[C@H](CO)C(O)C3O)c2n1` (some centres unmarked): the minimal effective concentration under setting [1] is more than 500 µM. Besides, under setting [2], the “With Pentostadin Cell Assay” value was found to be 100 µM.

On to `Nc1nc(N)c2ncn([C@@H]3O[C@H](CO)C(O)C3O)c2n1` (some centres unmarked), for which the minimal effective concentration under setting [1] is more than 500 µM. In addition, the “With Pentostadin Cell Assay” value under setting [2] was 100 µM.

Consider `Nc1nc(F)nc2c1ncn2[C@@H]1O[C@H](CO)C(O)C1O` (some centres unmarked), for which the minimal effective concentration under setting [1] came to 50 µM.

For `Nc1ncnc2c1c(Br)c(Br)n2[C@@H]1O[C@H](CO)[C@H](O)[C@H]1O`, the minimal effective concentration under setting [1] is more than 500 µM. For the same compound, under setting [2], the “With Pentostadin Cell Assay” value stood at 100 µM.

Consider `Nc1ncnc2c1c(Br)c(Br)n2[C@@H]1O[C@H](CO)C[C@H]1O`, for which the minimal effective concentration under setting [1] was more than 500 µM. Further, the “With Pentostadin Cell Assay” value under setting [2] stood at 100 µM.

Take `Nc1ncnc2c1c(Br)cn2[C@H]1O[C@H](CO)[C@H](O)[C@H]1O`: the minimal effective concentration under setting [1] is more than 500 µM. Besides, under setting [2], the “With Pentostadin Cell Assay” value came out at 50 µM.

Consider `Nc1ncnc2c1nc(Br)n2[C@@H]1O[C@H](CO)[C@H](O)[C@H]1O`, for which the minimal effective concentration under setting [1] was more than 500 µM. Further, under setting [2], the “With Pentostadin Cell Assay” value is 100 µM.

For the compound `COc1cc2c(N)ncnc2n1[C@@H]1O[C@H](CO)[C@H](O)[C@H]1O`, the minimal effective concentration under setting [1] was more than 500 µM. Further, the “With Pentostadin Cell Assay” value under setting [2] came out at 100 µM.

Regarding `Nc1ncnc2c1cc(Br)n2[C@@H]1O[C@H](CO)[C@H](O)[C@H]1O`, the minimal effective concentration under setting [1] was more than 500 µM. The “With Pentostadin Cell Assay” value under setting [2] came to 100 µM.

Consider `Nc1ncnc2c1cc(Br)n2[C@@H]1O[C@H](CO)C[C@H]1O`, for which the minimal effective concentration under setting [1] is more than 500 µM. Besides, the “With Pentostadin Cell Assay” value under setting [2] came to 100 µM.

Take `Nc1ncnc2c1c(F)c(Br)n2[C@@H]1O[C@H](CO)[C@H](O)[C@H]1O`: the minimal effective concentration under setting [1] was more than 500 µM. The “With Pentostadin Cell Assay” value under setting [2] turned out to be 100 µM.

On to `Nc1ncnc2c1nc(Br)n2[C@@H]1O[C@H](CO)C[C@H]1O`, for which the minimal effective concentration under setting [1] was more than 500 µM. For the same compound, the “With Pentostadin Cell Assay” value under setting [2] stood at 100 µM.

For the compound `Nc1ncnc2c1c(F)cn2[C@@H]1O[C@H](CO)[C@H](O)[C@H]1O`, under setting [1], the minimal effective concentration is more than 500 µM. Moreover, the “With Pentostadin Cell Assay” value under setting [2] stood at 100 µM.

As to `Nc1nc(Br)nc2c1ncn2[C@@H]1O[C@H](CO)C[C@H]1O`, under setting [1], the minimal effective concentration was more than 500 µM. In addition, the “With Pentostadin Cell Assay” value under setting [2] is 100 µM.

Consider `Nc1ncnc2c1c(F)cn2[C@H]1O[C@H](CO)[C@H](O)[C@H]1O`, for which, under setting [1], the minimal effective concentration was more than 500 µM. In addition, the “With Pentostadin Cell Assay” value under setting [2] was 100 µM.

`Nc1nccc2c1ncn2[C@@H]1O[C@H](CO)[C@H](O)[C@H]1O`: the minimal effective concentration under setting [1] is more than 500 µM. For the same compound, the “With Pentostadin Cell Assay” value under setting [2] is 100 µM.

As to `CC1(CCC(=O)O[C@@H]2[C@H](O)[C@@H](COC(=O)CCCC(=O)NCCCOCCOCCOCCCNC(=O)CCCC[C@H]3SC[C@H]4NC(=O)N[C@H]43)O[C@H]2n2cnc3c(N)ncnc32)N=N1`, under setting [1], the minimal effective concentration was more than 500 µM. The “With Pentostadin Cell Assay” value under setting [2] stood at 100 µM.

As for `CC1(CCC(=O)O[C@@H]2[C@@H](O)[C@H](n3cnc4c(N)ncnc43)O[C@@H]2COC(=O)CCCC(=O)NCCCOCCOCCOCCCNC(=O)CCCC[C@H]2SC[C@H]3NC(=O)N[C@H]32)N=N1`, the minimal effective concentration under setting [1] is more than 500 µM. Under setting [2], the “With Pentostadin Cell Assay” value was found to be 100 µM.

With `Nc1ncnc2c1ncn2[C@@H]1O[C@H]([C@H](O)CO)[C@H](O)[C@H]1O`, the minimal effective concentration under setting [1] was more than 500 µM. Besides, under setting [2], the “With Pentostadin Cell Assay” value turned out to be 200 µM.

Consider `C#CC(O)C1O[C@@H](n2cnc3c(N)ncnc32)[C@H](O)[C@H]1O` (some centres unmarked), for which the minimal effective concentration under setting [1] was more than 500 µM. Further, the “With Pentostadin Cell Assay” value under setting [2] was 100 µM.

For `Nc1ncnc2c1c(Br)cn2[C@H]1O[C@H](CO)C[C@H]1O`, the minimal effective concentration under setting [1] is more than 500 µM. Also, under setting [2], the “With Pentostadin Cell Assay” value came to 200 µM.

Regarding `Nc1nc(F)nc2c1nc(F)n2[C@@H]1O[C@H](CO)[C@H](O)[C@H]1O`, the minimal effective concentration under setting [1] was more than 500 µM. Under setting [2], the “With Pentostadin Cell Assay” value amounted to 200 µM.

Regarding `Nc1ncnc2c1ncn2[C@@H]1O[C@@H]2COC2[C@H]1O` (some centres unmarked), the minimal effective concentration under setting [1] is more than 500 µM. The “With Pentostadin Cell Assay” value under setting [2] was 100 µM.

For `[2H]c1nc(N)c2nc([2H])n([C@@H]3O[C@H](CO)C[C@H]3O)c2n1`, the minimal effective concentration under setting [1] stood at 25 µM. The “With Pentostadin Cell Assay” value under setting [2] was 12.5 µM.

As to `Nc1ncnc2c1ncn2[C@@H]1O[C@H](CO)[C@H](O)[C@H]1O` [NQZ-007, 9-(β-D-xylofuranosyl)-adenine], the “concentration of eliciting 12 h phase shift (potency)” value runs as follows: (pentostatin containing medium (5 μg/ml)) 0.2 µM; (without pentostatin) 25 µM.

As for `CCCCCCCC(=O)Nc1ncnc2c1ncn2[C@@H]1O[C@H](CO)[C@H](O)[C@H]1O` [NQZ-163], the “amplitude effect, Per2:luc signal versus control” value (under the concentration of 100 μM) is given as “more than two fold of control”.

Values taken from patent US12667584B2, “Adenosine analog and its use in regulating the circadian clock” (NATIONAL INSTITUTE OF BIOLOGICAL SCIENCES, BEIJING, priority 2017, dated 2026).
